“Also recorded” adds a separate entry of the source.
How the values were obtained:
H1299 cells [1] = test: Guava Nexin assay (Annexin V / 7-AAD); assay type: cell-based, human; conditions: 10 μM, 4, 24 and 48 hours
Description: (§1) The effect of PES-Cl on apoptosis was observed using Guana Nexin Reagent (Millipore) in H1299 and FaDu cells. The Guana Nexin Assay utilizes Annexin V-PE to detect phosphatidylserine (PS) on the external membrane of apoptotic cells. The cell impermeant dye, 7-AAD, is also used in the Guava Nexin Assay as an indicator of cell membrane structural integrity. 7-AAD is excluded from live, healthy cells as wells as early apoptotic cells. Three populations of cells can be distinguished in the assay: Non-Apoptotic cells (Annexin V(−) and 7-AAD(−)), Early Apoptotic cells (Annexin V(+) and 7-AAD(−)), and Late Stage Apoptotic and dead cells (Annexin V(+) and 7-AAD(+)). The H1299 and FaDu cells were seeded on 24-well plates and treated with 10 μM PES or 10 μM PES-Cl. DMSO treated cells were used as a vehicle control. Four, 24 and 48 hours post-treatment, the H1299 cells were washed with PBS and trypsinized. For FaDu cells, the time course was 24, 48 and 72 hours. The cells were pelleted and resuspended in Guava Nexin reagent as per the manufacturer instructions and the readings were obtained with a Guava reader (Guava Technologies, Millipore). The total number of cells that were in Late Stage Apoptosis or dead (by necrotic or apoptotic mechanisms) was analyzed in density plots to determine as Annexin V positive.

FADU cells = test: Guava Nexin assay (Annexin V / 7-AAD); assay type: cell-based, human; conditions: 10 μM, 24, 48 and 72 hours
Description: as §1

Eμ-Myc transgenic mice = test: Eμ-Myc mouse model of lymphomagenesis; assay type: in vivo; conditions: 20 mg/kg weekly i.p. from 6 weeks of age
Protocol: To evaluate the efficacy of PES as a chemopreventative agent, Eμ-Myc transgenic mice were injected every 5 days, starting at 8 weeks of age, with either vehicle or PES (40 mg/kg) prepared in PBS. All animals received a total of 7 injections, either with PES or vehicle. Consequently, no injection was given after day 86. All mice were observed daily for signs of morbidity and the development of lymphoma. All experiments with mice were approved by, and conformed to, the guidelines of the Institutional Animal Care and Use Committee of the Fox Chase Cancer Center. These mice may also be used to advantage to test the beneficial therapeutic combinations of agents and/or treatments described herein.
Beginning at 6 weeks of age, Eμ-myc transgenic mice were treated either with vehicle, 20 mg/kg PES or 20 mg/kg PES-Cl with weekly i.p. injections of tested compound (FIG. 27).

H1299 cells [2] = test: Proliferation observed by light microscopy; assay type: cell-based, human; conditions: 10 μM, 24 and 48 hours
Protocol: (§2) H1299 cells were seeded on […] and treated with 10 μM PES or 10 μM PES-Cl. DMSO treated cells were used as a control and the proliferation of the H1299 cells was observed over 24 and 48 hours of treatment. The cells were imaged by light microscopy with 20× magnification (FIG. 28). Non-tumorogenic and tumorogenic cells were then treated with PES-Cl to observe its toxicity and effect on proliferation. Two tumorogenic cell lines (H1299 and FaDu) and two normal fibroblast cell lines (6113 and WI38) were seeded on a 96-well plate. The cells were treated with various concentrations of PES and PES-Cl. Forty-eight hours post-treatment MTT assays (Cayman Chemical Company) were performed (FIG. 29).

[3] = tested on: H1299 and FaDu; 6113 and WI38; test: MTT assay, tumorogenic versus normal fibroblast cell lines; assay type: cell-based, human; conditions: various concentrations, 48 hours
Protocol: as §2

H1299 and FaDu cells = test: Western blot of autophagy and apoptosis markers; assay type: cell-based, human; conditions: 10 μM, 24, 48 and 72 hours
Protocol: Tumorogenic cells H1299 and FaDu cells were seeded in 10 cm plates and were treated with 10 μM PES or 10 μM PES-Cl. DMSO treated cells were used as a vehicle treated control. Twenty-four, 48 and 72 hours post-treatment the cells were scrapped and protein extracts were generated. Western blotting was performed as described hereinabove. The antibodies used in the protocol were p62 (Santa Cruz), Hsp70 (Cell Signaling), cleaved lamin A (Cell Signaling), Hsp40 (Cell Signaling), γH2A.X (Millipore), and actin (Sigma).

HSP70 = HSP70 (Homo sapiens, UniProt P0DMV8); test: Capture of HA-tagged HSP70 constructs from transfected H1299 cells with biotinylated compound; assay type: binding; parameters: expressed in transfected cells; host or cells: H1299; conditions: biotinylated compound, 6 hours
Chain of HSP70 (P0DMV8 2-641): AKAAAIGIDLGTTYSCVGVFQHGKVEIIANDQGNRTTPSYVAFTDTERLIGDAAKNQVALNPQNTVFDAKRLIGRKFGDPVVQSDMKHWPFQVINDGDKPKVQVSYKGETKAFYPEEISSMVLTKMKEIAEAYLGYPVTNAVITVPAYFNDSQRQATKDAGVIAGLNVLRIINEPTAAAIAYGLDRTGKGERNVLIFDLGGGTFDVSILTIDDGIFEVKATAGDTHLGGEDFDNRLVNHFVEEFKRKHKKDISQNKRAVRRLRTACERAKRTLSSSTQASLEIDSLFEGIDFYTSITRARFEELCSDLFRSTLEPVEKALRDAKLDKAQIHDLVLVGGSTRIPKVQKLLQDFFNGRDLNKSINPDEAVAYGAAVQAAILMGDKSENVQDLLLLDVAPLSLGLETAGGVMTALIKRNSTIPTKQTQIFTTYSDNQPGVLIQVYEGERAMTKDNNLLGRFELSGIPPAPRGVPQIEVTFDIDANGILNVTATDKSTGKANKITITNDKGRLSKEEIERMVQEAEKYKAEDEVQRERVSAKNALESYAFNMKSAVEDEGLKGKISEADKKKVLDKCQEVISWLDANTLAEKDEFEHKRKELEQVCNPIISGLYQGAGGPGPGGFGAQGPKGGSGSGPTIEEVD
Protocol: FIG. 1. PES Binds to HSP70. (A) Whole cell extracts (WCE) prepared from A875 and BCL-xL over-expressing U2OS human osteosarcoma cells (BX-U2OS) cells, treated with Biotin or Biotin-PES (B-PES), were captured using NeutrAvidin agarose resins. HSP70-family proteins were identified as the major product in the excised band of ˜70 kDa shown in both Coomassie gels. (B and C) WCE were prepared from the cell lines indicated following 24 h treatment with 20 μM Biotin or B-PES and examined for the expression of proteins indicated (left panel of B and C) by western blot analysis; note that different exposure times were used to visualize these proteins. […] (D) In vitro evidence for an interaction between B-PES and HSP70. Full-length human HSP70 and human HSP90 proteins were in vitro translated in the presence of ^35S-methionine, mixed with B-PES coupled to NeutrAvidin resins, and eluted using 100 mM DTT. The resulting DTT eluates were separated by polyacrylamide gel electrophoresis (SDS-PAGE) and visualized by autoradiography. (E) B-PES interacts with the C-terminal region of HSP70. H1299 cells were transfected with the indicated hemagglutinin (HA)-tagged constructs and exposed to B-PES. B-PES containing complexes were captured by NeutrAvidin Resins, eluted following 100 mM DTT treatment, and immunoblotted with anti-HA antibody following SDS-PAGE. (F) Non-transformed human IMR90 fibroblasts or H1299 lung carcinoma cells were treated with the indicated concentrations of PES for 24 h and cell viability was determined by MTT assays. (G) WCE were prepared from the cell lines indicated following 5 hr treatment with 20 μM PES or B-PES and examined for the expression of proteins indicated (left panel) by western blot analysis; note that different exposure times were used to visualize these proteins. B-PES-containing complexes were captured by NeutrAvidin resins, eluted following 50 mM DTT treatment, and immunoblotted using the indicated antibodies.
The free amide group of PES-Cl was biotinylated and added to HA-tagged HSP70-transfected H1299 cells. The treatment of the cells occurred for 6 hours. The complexes were pulled down with NeutrAvidin beads, eluted with 100 mM DTT treatments, separated with SDS-PAGE and detected with anti-HA antibody (Millipore) by Western blot.
Docking studies were performed using the C-terminal HSP70 crystal structure (FIG. 32) to elucidate the PES binding site in silico (FIG. 33). Blind docking methods were used in the program AutoDock to locate potential PES binding sites. These methods use a course grid docking approach, encompassing the entire protein, to identify favorable binding sites using a known binding ligand, and are examined by hand to support the AutoDock data. […]

Scc56 cell line = test: MTT cell viability assay, PES-Cl with Temsirolimus; assay type: cell-based, human; conditions: singly and together, varying concentrations
Protocol: PES-Cl was tested in combination with Temsirolimus, an mTOR inhibitor, to determine whether they act synergistically to kill cells. Head and neck cancer cells of the Scc56 cell line were treated with PES-Cl and Temsirolimus, singly and together, at varying concentrations utilizing an MTT assay.

[4] = tested on: SKBR3 human breast adenocarcinoma cells; test: MTT assay; assay type: cell-based; conditions: various concentrations, 72 hours
Protocol: SKBR3 human breast adenocarcinoma cells were seeded and treated with PES and PES-Cl at various concentrations.

Compound: NS(=O)(=O)C#Cc1cccc(Cl)c1 [PES-Cl, 2-(3-chlorophenyl)-ethynesulfonamide]
- apoptosis and cell death (Annexin V positive cells) (H1299 cells [1]): induced apoptosis and cell death; also recorded: superior compound for induction of apoptosis
- apoptosis and cell death (Annexin V positive cells) (FADU cells): induced apoptosis and cell death; also recorded: superior compound for induction of apoptosis
- survival (Eμ-Myc transgenic mice): extended survival
- proliferation (H1299 cells [2]): inhibits the proliferation of H1299 cells
- cell survival, tumorogenic versus non-tumorogenic cells [3]: greater concentration dependent effect on cell survival in tumorogenic cells; also recorded: superior and specific inhibitor of proliferation of tumor cells with limited toxicity to normal cells
- apoptosis (H1299 and FaDu cells): induced apoptosis
- autophagy (H1299 and FaDu cells): inhibited autophagy
- interaction with HA-tagged HSP70 (HSP70): interact with HSP70
- combination effect with Temsirolimus (Scc56 cell line): synergistic effect resulting in enhanced dose-dependent cytotoxicity
- cytotoxicity compared to PES [4]: superior cytotoxic agent when compared to PES

Reference: patent US9296687B2, “Modulators of HSP70/DnaK function and methods of use thereof” (The Trustees of the University of Pennsylvania, priority 2008, dated 2016)
